This note sets out measurements from article PMC9318686, “Identification of NAPRT Inhibitors with Anti-Cancer Properties by In Silico Drug Discovery” (Pharmaceuticals, 2022).

pKi: −log10 of the molar value.

The assay deals with T1, recombinant human NAPRT (nicotinic acid phosphoribosyltransferase) (Homo sapiens, UniProt Q6XQN6).
T1 construct: dimer
T1 sequence (Q6XQN6 1-538): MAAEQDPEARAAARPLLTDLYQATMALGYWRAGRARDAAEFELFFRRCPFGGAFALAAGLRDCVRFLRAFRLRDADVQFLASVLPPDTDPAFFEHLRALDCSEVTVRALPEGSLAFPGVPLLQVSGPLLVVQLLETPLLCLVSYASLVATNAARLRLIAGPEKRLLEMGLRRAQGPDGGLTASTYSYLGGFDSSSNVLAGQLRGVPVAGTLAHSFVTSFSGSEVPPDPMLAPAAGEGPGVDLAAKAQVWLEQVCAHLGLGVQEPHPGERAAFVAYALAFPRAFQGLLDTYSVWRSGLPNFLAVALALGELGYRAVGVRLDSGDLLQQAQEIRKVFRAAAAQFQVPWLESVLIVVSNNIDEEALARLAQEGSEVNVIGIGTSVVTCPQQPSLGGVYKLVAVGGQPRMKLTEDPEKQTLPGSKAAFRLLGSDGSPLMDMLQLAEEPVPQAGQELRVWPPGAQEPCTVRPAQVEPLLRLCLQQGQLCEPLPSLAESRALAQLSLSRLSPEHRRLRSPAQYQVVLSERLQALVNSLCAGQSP
The assay is described as follows: HPLC of NAMN formation, Michaelis-Menten fit. The class given is biochemical. The text has this: HPLC of NAMN formation, Michaelis-Menten fit on recombinant human NAPRT (nicotinic acid phosphoribosyltransferase)
As for `O=C(N[C@@H](C(=O)c1ccccc1)n1cnccc1=O)c1ccccc1` [compound 1], the pKi – broadly, the Ki on a negative log10 scale, so that one unit is a factor of ten – is 2.64.
For `O=C(O)c1cnccc1O` [compound 8] the value was 3.51; for `O=C(O)c1cnsn1` [compound 19], 3.53.
